Measurements from ChEMBL document CHEMBL2046391, “Calyxamides A and B, cytotoxic cyclic peptides from the marine sponge Discodermia calyx” (J Nat Prod, 2012).
Activity calls are given as the source filed them.

Experiments:
MCF7 = experiment: Antiproliferative activity against human MCF7 cells at 100 uM by XTT assay; type: functional, cell-based
Caco-2 = experiment: Antiproliferative activity against human Caco2 cells at 100 uM by XTT assay; type: functional, cell-based
Escherichia coli = experiment: Antimicrobial activity against Escherichia coli at 100 ug/disc measured every 24 hrs for 4 days by disc diffusion method; type: functional, organism-based
Drosophila melanogaster = experiment: Insecticidal activity against Drosophila melanogaster at 100 ug; type: functional, organism-based
Lactuca sativa = experiment: Phytotoxicity against lettuce seedling at 50 ug/mL by seedling elongation assay; type: functional, organism-based
Bacillus cereus = experiment: Antimicrobial activity against Bacillus cereus at 100 ug/disc measured every 24 hrs for 4 days by disc diffusion method; type: functional, organism-based
Aedes aegypti = experiment: Insecticidal activity against Aedes aegypti larvae at 100 ug/mL after 24 hrs; type: functional, organism-based
Colletotrichum acutatum = experiment: Antimicrobial activity against Colletotrichum acutatum at 100 ug/disc measured every 24 hrs for 4 days by disc diffusion method; type: functional, organism-based
Beauveria bassiana = experiment: Antimicrobial activity against Beauveria bassiana ARSEF 8354 at 100 ug/disc measured every 24 hrs for 4 days by disc diffusion method; type: functional
Saccharomyces cerevisiae = experiment: Antimicrobial activity against Saccharomyces cerevisiae at 100 ug/disc measured every 24 hrs for 4 days by disc diffusion method; type: functional, organism-based
Botrytis cinerea = experiment: Antimicrobial activity against Botrytis cinerea at 100 ug/disc measured every 24 hrs for 4 days by disc diffusion method; type: functional, organism-based

Measured: Activity

CC[C@H](C)C[C@H](C)[C@H]1OC(=O)[C@H](Cc2ccccc2)NC(=O)/C(C)=C/[C@H](C)[C@@H](O)/C(C)=C/[C@H](C)[C@H](O)/C(C)=C\[C@@H]1C
inactive: MCF7 | Caco-2

CC[C@H](C)C[C@H](C)[C@H]1OC(=O)[C@H](Cc2ccccc2)NC(=O)/C(C)=C/[C@H](C)[C@@H](O)/C(C)=C/[C@H](C)[C@H](OC(C)=O)/C(C)=C/[C@@H]1C
not listed: MCF7 | Caco-2
inactive: all other assays above
